Results as given in patent EP1733731A1, “New uses of Glycerol derivatives in particular in cosmetics” (AGRO INDUSTRIE RECHERCHES ET DEVELOPPEMENTS (A.R.D.), priority 2005, dated 2006).

Biological target: T1, MMP-2 (Homo sapiens, UniProt P08253)
T1 construct: La proMMP-2 recombinante (12,5 ng/mL) est activée par l'APMA 10 mM pendant 16 heures à 4°C
T1 sequence (P08253 110-660): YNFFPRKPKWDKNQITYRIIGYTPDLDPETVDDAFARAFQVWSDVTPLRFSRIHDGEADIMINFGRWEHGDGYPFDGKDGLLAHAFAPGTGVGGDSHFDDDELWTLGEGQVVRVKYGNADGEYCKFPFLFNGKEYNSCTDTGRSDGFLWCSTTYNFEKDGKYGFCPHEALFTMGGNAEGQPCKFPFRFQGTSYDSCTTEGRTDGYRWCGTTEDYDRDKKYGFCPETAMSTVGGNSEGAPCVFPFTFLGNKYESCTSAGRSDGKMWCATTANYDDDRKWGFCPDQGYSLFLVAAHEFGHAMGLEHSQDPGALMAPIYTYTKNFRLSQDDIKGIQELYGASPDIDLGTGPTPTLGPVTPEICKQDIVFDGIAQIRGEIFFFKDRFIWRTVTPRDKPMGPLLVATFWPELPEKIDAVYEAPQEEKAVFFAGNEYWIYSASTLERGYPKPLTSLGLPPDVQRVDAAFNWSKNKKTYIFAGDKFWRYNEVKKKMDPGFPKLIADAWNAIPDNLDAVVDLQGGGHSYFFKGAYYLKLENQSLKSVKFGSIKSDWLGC
Assay: MMP-2 activity on fluorescent synthetic substrate
Assay type: biochemical
Conditions: 25 µg/mL
Description: L'inhibition de l'activité des gélatinases MMP-2 et MMP-9 par les acides gras insaturés à longue chaîne a pu être montré sur des coupes de peau. Ce phénomène implique à la fois des domaines spécifiques des gélatinases : les "Collagen Binding Domain" (CBD) et la double liaison des acides gras. L'interaction entre les gélatinases, via ces sites particuliers que sont les exosites (CBD), et l'acide gras, via son insaturation, entraîne une perte d'activité des gélatinases in vitro comme in vivo. La présence de double liaisons au niveau des chaînes latérales de ces glycolipides a conduit à cribler l'ensemble des composés de l'invention sur l'activité de la gélatinase-A ou MMP-2, car cette enzyme, bien qu'elle ne soit pas surexprimée au cours des vieillissements par les cellules dermiques, participe à la dégradation du tissu élastique responsable de la formation de rides. […]
La proMMP-2 recombinante (12,5 ng/mL) est activée par l'APMA 10 mM pendant 16 heures à 4°C puis préincubée 10 min en présence des différentes fractions et composés à tester : le substrat synthétique spécifique de la MMP-2 (Référence : M-1895, Bachem) est ensuite ajouté, à la concentration de 2 µM. Le clivage de ce substrat est estimé par mesure de la fluorescence émise après clivage (λexc = 326 nm; λem = 465 nm), à raison d'une lecture toutes les 2 minutes pendant 30 minutes. […]

Question: For CCCCC/C=C\C/C=C\CCCCCCCCOC[C@H](CO[C@@H]1O[C@H](COC(=O)CCCCCCCCCCCCCCC)[C@H](O)[C@H](O)[C@H]1O)OCCCCCCCC/C=C\C/C=C\CCCCC [ED23-11, 1,2-di-O-linoléyl-3-O-[6'-O-palmitoyl-β-D-galactopyranosyl]-sn-glycérol], which “MMP-2 (Vi/Vo)” value is on record?
Answer: > 1
